Each block holds one compound with its values, some of them ahead of it.
What was measured:
[1] = system: β-D-glucosidase in the stratum corneum; assay: enzymatic test of stratum corneum glycosidases with PNP chromogenic substrate: β-glucosidase; format: biochemical; conditions: for stimulation of β-D-glucosidase activity: different concentrations, FIG. 2
Description: (§1) In order to determine the nature and importance of the barrier effect of a carbohydrate derivative in accordance with the invention, the influence of O-octanoyl-6′-maltose on glycosidase activity was studied using the following enzymatic test: The assay was carried out in a 96 well plate. A mixture comprising the following was produced: 75μl of a 10 mM solution of specific chromogenic substrate coupled to paranitrophenol (PNP); 10 μl of 700 mM citrate buffer/200 mM sodium phosphate, pH 4.5; 55 μl of a 0.5 M solution of O-octanoyl-6′-maltose [α-D-glucopyannosyl-1-4-D-glucopyranose]; 40 μl of a solution of soluble glycosidases from the stratum corneum. This solution was obtained simply by scratching the forearm into a 70 mM sodium citrate buffer, pH 4.5 containing 1% of Tween 20 and eliminating cell debris by sequential filtering through a membrane with a pore size of 0.45 and of 0.22 μm. The measurements were carried out by quantifying the yellow coloration after incubation at 37° C. for a period in the range 1h30 and 48 hours.

[2] = system: thermostable recombinant glycosidases (Clonezyme); assay: effect on thermostable recombinant glycosidases sold by Clonezyme; format: biochemical; conditions: FIG. 3; increasing concentrations; 7 glycosidases tested
Description: O-octanoyl-6′-maltose was also tested for its effect on glycosidases sold by Clonezyme.

[3] = system: other glycosidases of the stratum corneum; assay: enzymatic test of stratum corneum glycosidases with PNP chromogenic substrate: other glycosidases; format: biochemical; conditions: FIG. 1; activity relative to value without compound; pH 4.5, 37° C.
Description: as §1

GLY-05 = system: GLY-05; set-up: key: −: no activity; ε, +, ++: specific activity; ε, +, ++: specific activity; ε, +, ++: specific activity; conditions: glycosidase sold by Clonezyme; cited from earlier work
GLY-06 = system: GLY-06; set-up: key: −: no activity; ε, +, ++: specific activity; ε, +, ++: specific activity; ε, +, ++: specific activity; conditions: glycosidase sold by Clonezyme; cited from earlier work
GLY-08 = system: GLY-08; set-up: key: −: no activity; ε, +, ++: specific activity; ε, +, ++: specific activity; ε, +, ++: specific activity; conditions: glycosidase sold by Clonezyme; cited from earlier work
GLY-07 = system: GLY-07; set-up: key: −: no activity; ε, +, ++: specific activity; ε, +, ++: specific activity; ε, +, ++: specific activity; conditions: glycosidase sold by Clonezyme; cited from earlier work
GLY-09 = system: GLY-09; set-up: key: −: no activity; ε, +, ++: specific activity; ε, +, ++: specific activity; ε, +, ++: specific activity; conditions: glycosidase sold by Clonezyme; cited from earlier work
GLY-04 = system: GLY-04; set-up: key: −: no activity; ε, +, ++: specific activity; ε, +, ++: specific activity; ε, +, ++: specific activity; conditions: glycosidase sold by Clonezyme; cited from earlier work
GLY-03 = system: GLY-03; set-up: key: −: no activity; ε, +, ++: specific activity; ε, +, ++: specific activity; ε, +, ++: specific activity; conditions: glycosidase sold by Clonezyme; cited from earlier work
GLY-02 = system: GLY-02; set-up: key: −: no activity; ε, +, ++: specific activity; ε, +, ++: specific activity; ε, +, ++: specific activity; conditions: glycosidase sold by Clonezyme; cited from earlier work
GLY-10 = system: GLY-10; set-up: key: −: no activity; ε, +, ++: specific activity; ε, +, ++: specific activity; ε, +, ++: specific activity; conditions: glycosidase sold by Clonezyme; cited from earlier work
GLY-01 = system: GLY-01; set-up: key: −: no activity; ε, +, ++: specific activity; ε, +, ++: specific activity; ε, +, ++: specific activity; conditions: glycosidase sold by Clonezyme; cited from earlier work

SMILES: CCCCCCCC(=O)OCC1OC(O)C(O)C(O)C1O [O-octanoyl-6-D-glucose]
- stimulation of β-D-glucosidase activity [1]: a certain stimulation of activity, albeit small

- concentration giving maximum stimulation of β-D-glucosidase activity ([1]; increasing product concentrations, about 40 mM (1%)): about 40 mM
- effect on recombinant glycosidases, first group of enzymes [2]: insensitive
- effect on recombinant glycosidases, second group of enzymes [2]: inhibited
- stimulation of recombinant glycosidases, third group of enzymes, of their base activity [2]: up to 400%
SMILES: CCCCCCCC(=O)OC[C@H]1O[C@H](O[C@H]2[C@H](O)[C@@H](O)C(O)O[C@@H]2CO)[C@H](O)[C@@H](O)[C@@H]1O (stereo partly drawn) [O-octanoyl-6′-maltose, O-octanoyl-6′-maltose [α-D-glucopyranosyl-1-4-D-glucopyranose]]
- effect on β-glucosidase activity of the stratum corneum ([1]; FIG. 1, activity relative to value without compound, pH 4.5, 37° C.): only β-glucosidase had kinetics influenced
- effect on the other glycosidases of the stratum corneum [3]: either indifferent to the presence of O-octanoyl-6′-maltose or very slightly inhibited

SMILES: OC[C@H]1O[C@H](O[C@H]2[C@H](O)[C@@H](O)[C@H](O)O[C@@H]2CO)[C@H](O)[C@@H](O)[C@@H]1O [maltose]
- stimulation of β-D-glucosidase activity [1]: Neither maltose alone nor glucose alone could stimulate β-D-glucosidase activity

SMILES: CC(=O)NC1C(Oc2ccc([N+](=O)[O-])cc2)OC(CO)C(O)C1O [β-N-acetyl-D-glucosaminide]
- substrate specificity GLY-05 (GLY-05): −
- substrate specificity GLY-06 (GLY-06): −
- substrate specificity GLY-08 (GLY-08): −
- substrate specificity GLY-07 (GLY-07): −
- substrate specificity GLY-09 (GLY-09): −
- substrate specificity GLY-04 (GLY-04): −
- substrate specificity GLY-03 (GLY-03): −
- substrate specificity GLY-02 (GLY-02): −
- substrate specificity GLY-10 (GLY-10): −
- substrate specificity GLY-01 (GLY-01): −

Reference: US20040062739A1, “Use of carbohydrates to improve skin barrier function” (SOCIETE L'OREAL S.A., priority 2000, published 2004)
